These are literature values, as cited in patent US20230018600A1, “CONTROLLED RELEASE FORMULATIONS COMPRISING DROTAVERINE OR SALT THEREOF” (priority 2020, published 2023).

For series [1], the system named is human isolated detrusor muscle. To be noted: induced plateau of contraction.
Test in series [2]: not given
The source holds these as a separate data set.

In the case of `CCOc1ccc(/C=C2\NCCc3cc(OCC)c(OCC)cc32)cc1OCC` [Drotaverine, (Z)-1-(3,4-diethoxybenzylidene)-6,7-diethoxy-1,2,3,4-tetrahydroisoquinoline], the “oral LD50” value is reported as over 1000 mg/Kg body weight. For the same molecule, the “relaxation of human detrusor muscle contraction” value in series [1] was “significant concentration-dependent relaxation”. Moreover, the “renal clearance as share of total plasma clearance” value in series [2] (IR Drotaverine Tablets 80 mg) is 0.31+/−0.13%. Further, the onset of action in series [2] (after oral administration of 80 mg strength IR tablets) was at most 12 min. In addition, the “drug absorption from small intestine” value in series [2] (oral, 80 mg IR tablets) is recorded as about 90%. Further, the “absolute bioavailability, range” value in series [2] (oral, IR tablets 80 mg, subject-dependent range) is on record as 24.5-91%.
